Each structure is given as a SMILES string.

The subject of this assay is Bmi-1. As to the kind of experiment: Sandwich ELISA Assay (Bmi-1 ELISA in HT-1080 cells). The format is cell-based, human. In outline: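 HT-1080 cells (8000/well) were treated with compounds in 0.5% final DMSO for 40-48 h at 37°C and then lysed. Bmi-1 in lysates was measured by sandwich ELISA: overnight capture at 4°C on mouse monoclonal, rabbit anti-Bmi-1 detection, HRP anti-rabbit, TMB. OD450 was read with an OD570 reference against a recombinant GST-Bmi-1 standard curve (0-8000 pg/mL).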
(ELISA stands for enzyme-linked immunosorbent assay.)
Take `Cc1nc2c(Br)cccn2c1-c1csc(Nc2ccc(Cl)cc2)n1` [Cpd 230, 4-(8-bromo-2-methylimidazo[1,2-a]pyridin-3-yl)-N-(4-chlorophenyl)-1,3-thiazol-2-amine]: the IC50 (usually the point on the concentration scale where inhibition reaches its midpoint) was below 500 nM.

`Cc1nc2c(Br)cccn2c1-c1csc(Nc2ccccc2)n1` [Cpd 231, 4-(8-bromo-2-methylimidazo[1,2-a]pyridin-3-yl)-N-phenyl-1,3-thiazol-2-amine] gave an IC50 below 500 nM.

`COc1cccc(Nc2nc(-c3c(C)nc4c(Br)cccn34)cs2)c1` [Cpd 232, 4-(8-bromo-2-methylimidazo[1,2-a]pyridin-3-yl)-N-(3-methoxyphenyl)-1,3-thiazol-2-amine] returned an IC50 below 500 nM.

Regarding `Cc1nc2c(Br)cccn2c1-c1csc(Nc2ccccc2Cl)n1` [Cpd 233, 4-(8-bromo-2-methylimidazo[1,2-a]pyridin-3-yl)-N-(2-chlorophenyl)-1,3-thiazol-2-amine], the IC50 is below 500 nM.

`COc1ccccc1Nc1nc(-c2c(C)nc3c(Br)cccn23)cs1` [Cpd 234, 4-(8-bromo-2-methylimidazo[1,2-a]pyridin-3-yl)-N-(2-methoxyphenyl)-1,3-thiazol-2-amine] gave an IC50 below 500 nM.

On to `Cc1nc2c(Br)cccn2c1-c1csc(Nc2ccc3c(c2)OCO3)n1` [Cpd 235, N-(1,3-benzodioxol-5-yl)-4-(8-bromo-2-methylimidazo[1,2-a]pyridin-3-yl)-1,3-thiazol-2-amine], for which the IC50 is below 500 nM.

In turn, `COc1cccc(Nc2nc(-c3c(C)nc4ccc(F)cn34)cs2)c1` [Cpd 236, 4-(6-fluoro-2-methylimidazo[1,2-a]pyridin-3-yl)-N-(3-methoxyphenyl)-1,3-thiazol-2-amine] registered an IC50 below 500 nM.

For `Cc1ccc(Nc2nc(-c3c(C)nc4ccc(F)cn34)cs2)cc1` [Cpd 237, 4-(6-fluoro-2-methylimidazo[1,2-a]pyridin-3-yl)-N-(4-methylphenyl)-1,3-thiazol-2-amine], the IC50 was below 500 nM.

Consider `Cc1nc2ccc(F)cn2c1-c1csc(Nc2c(Br)cccc2Br)n1` [Cpd 239, N-(2,6-dibromophenyl)-4-(6-fluoro-2-methylimidazo[1,2-a]pyridin-3-yl)-1,3-thiazol-2-amine], for which the IC50 is below 500 nM.

Molecule `Cc1nc2cc(Cl)ccn2c1-c1csc(Nc2ccc(Cl)cc2)n1` [Cpd 240, 4-(7-chloro-2-methylimidazo[1,2-a]pyridin-3-yl)-N-(4-chlorophenyl)-1,3-thiazol-2-amine] yielded an IC50 below 500 nM.

Molecule `COc1ccc(Nc2nc(-c3c(C)nc4cc(Cl)ccn34)cs2)cc1` [Cpd 241, 4-(7-chloro-2-methylimidazo[1,2-a]pyridin-3-yl)-N-(4-methoxyphenyl)-1,3-thiazol-2-amine] had an IC50 below 500 nM.

The molecule `Cc1nc2cc(Cl)ccn2c1-c1csc(Nc2ccc(N(C)C)cc2)n1` [Cpd 242, N′-[4-(7-chloro-2-methylimidazo[1,2-a]pyridin-3-yl)-1,3-thiazol-2-yl]-N,N-dimethylbenzene-1,4-diamine] yielded an IC50 below 500 nM.

`Cc1ccc(Nc2nc(-c3c(C)nc4cc(Cl)ccn34)cs2)cc1` [Cpd 243, 4-(7-chloro-2-methylimidazo[1,2-a]pyridin-3-yl)-N-(4-methylphenyl)-1,3-thiazol-2-amine] showed an IC50 below 500 nM.

In turn, `CC(=O)c1ccc(Nc2nc(-c3c(C)nc4cc(Cl)ccn34)cs2)cc1` [Cpd 244, 1-(4-{[4-(7-chloro-2-methylimidazo[1,2-a]pyridin-3-yl)-1,3-thiazol-2-yl]amino}phenyl)ethanone] yielded an IC50 below 500 nM.

For `COc1ccc(Nc2nccc(-c3cnc4ccccn34)n2)cc1` [Cpd 245, 4-(imidazo[1,2-a]pyridin-3-yl)-N-(4-methoxyphenyl)pyrimidin-2-amine], the half-inhibitory concentration (IC50) is below 500 nM.

`Clc1cccc(Nc2nccc(-c3cnc4ccccn34)n2)c1` [Cpd 246, N-(3-chlorophenyl)-4-(imidazo[1,2-a]pyridin-3-yl)pyrimidin-2-amine] yielded an IC50 below 500 nM.
